Measured values reported in ChEMBL document CHEMBL1201862, “PubChem BioAssay data set” (2004).
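A five-concentration, 48-hour dose response in 96-well plates underlies each endpoint, interpolated linearly between surrounding concentrations. GI50 marks 50% less growth.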 Activity calls are given as the source filed them. Rule as the data show it: active = GI50 up to about 1.1 µM and inactive = higher.

Columns and labels:
Assay in all cases: NCI tumour cell line growth inhibition, 48 h
786-0 = tested on: 786-0
A498 = tested on: A498
A549 = tested on: A549
ACHN = tested on: ACHN
BT-549 = tested on: BT-549
CAKI-1 = tested on: CAKI-1
CCRF-CEM = tested on: CCRF-CEM
COLO 205 = tested on: COLO 205
DU-145 = tested on: DU-145
EKVX = tested on: EKVX
HCC 2998 = tested on: HCC 2998
HCT-116 = tested on: HCT-116
HCT-15 = tested on: HCT-15
HL-60 = tested on: HL-60
HT-29 = tested on: HT-29
IGROV-1 = tested on: IGROV-1
K562 = tested on: K562
KM12 = tested on: KM12
LOX IMVI = tested on: LOX IMVI
M14 = tested on: M14
MCF7 = tested on: MCF7
MDA-MB-231 = tested on: MDA-MB-231
MDA-MB-435 = tested on: MDA-MB-435
MDA-N = tested on: MDA-N
MOLT-4 = tested on: MOLT-4
Malme-3M = tested on: Malme-3M
NCI-H226 = tested on: NCI-H226
NCI-H23 = tested on: NCI-H23
NCI-H460 = tested on: NCI-H460
NCI-H522 = tested on: NCI-H522
NCI/ADR-RES = tested on: NCI/ADR-RES
OVCAR-3 = tested on: OVCAR-3
OVCAR-4 = tested on: OVCAR-4
OVCAR-5 = tested on: OVCAR-5
OVCAR-8 = tested on: OVCAR-8
PC-3 = tested on: PC-3
RPMI-8226 = tested on: RPMI-8226
RXF 393 = tested on: RXF 393
SF-268 = tested on: SF-268
SF-295 = tested on: SF-295
SF-539 = tested on: SF-539
SK-MEL-28 = tested on: SK-MEL-28
SK-MEL-2 = tested on: SK-MEL-2
SK-MEL-5 = tested on: SK-MEL-5
SK-OV-3 = tested on: SK-OV-3
SN12C = tested on: SN12C
SNB-19 = tested on: SNB-19
SR = tested on: SR
SW-620 = tested on: SW-620
T47D = tested on: T47D
TK-10 = tested on: TK-10
U-251 = tested on: U-251
UACC-257 = tested on: UACC-257
UACC-62 = tested on: UACC-62
UO-31 = tested on: UO-31
HOP-62 = tested on: HOP-62
Hs-578T = tested on: Hs-578T
SNB-75 = tested on: SNB-75

COc1cc(-c2nc3cc(F)ccc3s2)ccc1O
GI50 (786-0): 37.1 µM (inactive) | GI50 (A498): 18.5 µM (inactive) | GI50 (A549): 67.5 µM (inactive) | GI50 (ACHN): 89.5 µM (inactive) | GI50 (BT-549): 20.6 µM (inactive) | GI50 (CAKI-1): 28.2 µM (inactive) | GI50 (CCRF-CEM): 28.8 µM (inactive) | GI50 (COLO 205): 16.4 µM (inactive) | GI50 (DU-145): 82.8 µM (inactive) | GI50 (EKVX): 5.73 µM (inactive) | GI50 (HCC 2998): 0.0622 µM (active) | GI50 (HCT-116): 62.7 µM (inactive) | GI50 (HCT-15): 11.7 µM | GI50 (HL-60): 41 µM (inactive) | GI50 (HT-29): 39.3 µM (inactive) | GI50 (IGROV-1): 10.9 µM (inactive) | GI50 (K562): 82.8 µM (inactive) | GI50 (KM12): 18.6 µM (inactive) | GI50 (LOX IMVI): 39.1 µM (inactive) | GI50 (M14): 58.3 µM (inactive) | GI50 (MCF7): 4.61 µM (inactive) | GI50 (MDA-MB-231): 34.2 µM (inactive) | GI50 (MDA-MB-435): > 100 µM (inactive) | GI50 (MDA-N): 99.3 µM (inactive) | GI50 (MOLT-4): 56.8 µM (inactive) | GI50 (Malme-3M): 78.9 µM (inactive) | GI50 (NCI-H226): 26.4 µM (inactive) | GI50 (NCI-H23): 42.2 µM (inactive) | GI50 (NCI-H460): 70.5 µM (inactive) | GI50 (NCI-H522): 19.5 µM (inactive) | GI50 (NCI/ADR-RES): 78.9 µM (inactive) | GI50 (OVCAR-3): 12.8 µM (inactive) | GI50 (OVCAR-4): 21.9 µM (inactive) | GI50 (OVCAR-5): > 100 µM (inactive) | GI50 (OVCAR-8): > 100 µM (inactive) | GI50 (PC-3): 49 µM (inactive) | GI50 (RPMI-8226): 41.1 µM (inactive) | GI50 (RXF 393): > 100 µM (inactive) | GI50 (SF-268): 41.4 µM (inactive) | GI50 (SF-295): 43.7 µM (inactive) | GI50 (SF-539): 49.4 µM (inactive) | GI50 (SK-MEL-28): 33.8 µM (inactive) | GI50 (SK-MEL-2): > 100 µM (inactive) | GI50 (SK-MEL-5): 12.1 µM (inactive) | GI50 (SK-OV-3): 35.2 µM (inactive) | GI50 (SN12C): 85.1 µM (inactive) | GI50 (SNB-19): 83.2 µM (inactive) | GI50 (SR): 29.7 µM (inactive) | GI50 (SW-620): > 100 µM (inactive) | GI50 (T47D): 0.286 µM (active) | GI50 (TK-10): 33.7 µM (inactive) | GI50 (U-251): 54.1 µM (inactive) | GI50 (UACC-257): 19 µM (inactive) | GI50 (UACC-62): 36.6 µM (inactive) | GI50 (UO-31): 34.8 µM (inactive)

OCC1COc2cc(Cl)c(Cl)cc2O1 (stereo not given)
GI50 (A498): > 10 µM (inactive) | GI50 (A549): > 10 µM (inactive) | GI50 (ACHN): > 10 µM (inactive) | GI50 (CAKI-1): > 10 µM (inactive) | GI50 (CCRF-CEM): > 10 µM (inactive) | GI50 (COLO 205): > 10 µM (inactive) | GI50 (DU-145): > 10 µM (inactive) | GI50 (EKVX): > 10 µM (inactive) | GI50 (HCC 2998): > 10 µM (inactive) | GI50 (HCT-116): > 10 µM (inactive) | GI50 (HCT-15): > 10 µM | GI50 (HL-60): > 10 µM (inactive) | GI50 (HOP-62): > 10 µM (inactive) | GI50 (HT-29): > 10 µM (inactive) | GI50 (Hs-578T): > 10 µM (inactive) | GI50 (IGROV-1): > 10 µM (inactive) | GI50 (K562): > 10 µM (inactive) | GI50 (KM12): > 10 µM (inactive) | GI50 (LOX IMVI): > 10 µM (inactive) | GI50 (M14): > 10 µM (inactive) | GI50 (MCF7): > 10 µM (inactive) | GI50 (MDA-MB-231): > 10 µM (inactive) | GI50 (MDA-MB-435): > 10 µM (inactive) | GI50 (MDA-N): > 10 µM (inactive) | GI50 (MOLT-4): > 10 µM (inactive) | GI50 (Malme-3M): > 10 µM (inactive) | GI50 (NCI-H226): 6.3 µM (inactive) | GI50 (NCI-H23): > 10 µM (inactive) | GI50 (NCI-H460): > 10 µM (inactive) | GI50 (NCI-H522): 1.42 µM (inactive) | GI50 (NCI/ADR-RES): > 10 µM (inactive) | GI50 (OVCAR-3): > 10 µM (inactive) | GI50 (OVCAR-4): > 10 µM (inactive) | GI50 (OVCAR-5): > 10 µM (inactive) | GI50 (OVCAR-8): > 10 µM (inactive) | GI50 (PC-3): > 10 µM (inactive) | GI50 (RPMI-8226): > 10 µM (inactive) | GI50 (RXF 393): > 10 µM (inactive) | GI50 (SF-268): > 10 µM (inactive) | GI50 (SF-295): > 10 µM (inactive) | GI50 (SF-539): > 10 µM (inactive) | GI50 (SK-MEL-28): > 10 µM (inactive) | GI50 (SK-MEL-2): > 10 µM (inactive) | GI50 (SK-MEL-5): > 10 µM (inactive) | GI50 (SK-OV-3): > 10 µM (inactive) | GI50 (SN12C): > 10 µM (inactive) | GI50 (SNB-19): > 10 µM (inactive) | GI50 (SNB-75): > 10 µM (inactive) | GI50 (SR): > 10 µM (inactive) | GI50 (SW-620): > 10 µM (inactive) | GI50 (T47D): > 10 µM (inactive) | GI50 (TK-10): > 10 µM (inactive) | GI50 (U-251): > 10 µM (inactive) | GI50 (UACC-62): > 10 µM (inactive) | GI50 (UO-31): > 10 µM (inactive)
